According to ChEMBL document CHEMBL1201862, “PubChem BioAssay data set” (2004):
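Growth conditions: 96-well plates. Treatment: test compound, 48 hours, 5 concentrations. Analysis: linear interpolation between bracketing concentrations; unreached endpoints set to highest concentration. Abbreviation: GI50, concentration required for 50% inhibition of growth.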 Calls of active or inactive are those of the source. No stated cut-off is given here; in the data, active = GI50 up to about 1.1 µM and inactive = higher.

Legend:
Experiment in all cases: growth of human tumour cells (NCI), 48 h
Malme-3M = system: Malme-3M
OVCAR-4 = system: OVCAR-4
SF-539 = system: SF-539
MDA-MB-435 = system: MDA-MB-435
SK-OV-3 = system: SK-OV-3
HOP-62 = system: HOP-62
NCI-H23 = system: NCI-H23
MOLT-4 = system: MOLT-4
SF-268 = system: SF-268
UACC-257 = system: UACC-257
TK-10 = system: TK-10
HL-60 = system: HL-60
UO-31 = system: UO-31
DU-145 = system: DU-145
SK-MEL-2 = system: SK-MEL-2
A498 = system: A498
SR = system: SR
T47D = system: T47D
Hs-578T = system: Hs-578T

Compound | GI50 (Malme-3M) | GI50 (OVCAR-4) | GI50 (SF-539) | GI50 (MDA-MB-435) | GI50 (SK-OV-3) | GI50 (HOP-62) | GI50 (NCI-H23) | GI50 (MOLT-4) | GI50 (SF-268) | GI50 (UACC-257) | GI50 (TK-10) | GI50 (HL-60) | GI50 (UO-31) | GI50 (DU-145) | GI50 (SK-MEL-2) | GI50 (A498) | GI50 (SR) | GI50 (T47D) | GI50 (Hs-578T)
CC(=O)Oc1cc2c(n(C)c1=O)CCC2 | > 100 µM (inactive) | > 100 µM (inactive) | > 100 µM (inactive) | > 100 µM (inactive) | > 100 µM (inactive) | > 100 µM (inactive) | > 100 µM (inactive) | > 100 µM (inactive) | > 100 µM (inactive) | > 100 µM (inactive) | > 100 µM (inactive) | 81.5 µM (inactive) | 99.5 µM (inactive) | > 100 µM (inactive) | > 100 µM (inactive) | > 100 µM (inactive) |  |  | 
Nc1ccc(C(=O)CC2(O)C(=O)Nc3c(Cl)cc(Cl)cc32)cc1 (centres undefined) | > 100 µM (inactive) | > 100 µM (inactive) | > 100 µM (inactive) |  | > 100 µM (inactive) | > 100 µM (inactive) | 83 µM (inactive) | 46.8 µM (inactive) | > 100 µM (inactive) | 75.5 µM (inactive) | > 100 µM (inactive) | 24.9 µM (inactive) | > 100 µM (inactive) |  | > 100 µM (inactive) | > 100 µM (inactive) |  |  | 
CC(C)(C)OC(=O)NC1CCCC1=O (centres undefined) | > 100 µM (inactive) | > 100 µM (inactive) | > 100 µM (inactive) |  | > 100 µM (inactive) | > 100 µM (inactive) | > 100 µM (inactive) | > 100 µM (inactive) | > 100 µM (inactive) | > 100 µM (inactive) | > 100 µM (inactive) |  | > 100 µM (inactive) |  | > 100 µM (inactive) | 8.3 µM (inactive) | > 100 µM (inactive) |  | 
Oc1ccc(Cl)cc1C1=NC(NCNC2=NC(c3ccccc3)CC(c3cc(Cl)ccc3O)=N2)=NC(c2ccccc2)C1 (centres undefined) |  | 64.1 µM (inactive) | > 100 µM (inactive) | 47.9 µM (inactive) | > 100 µM (inactive) | > 100 µM (inactive) | > 100 µM (inactive) |  | 97.9 µM (inactive) | > 100 µM (inactive) | > 100 µM (inactive) | > 100 µM (inactive) | 54.2 µM (inactive) | 44.2 µM (inactive) | > 100 µM (inactive) | > 100 µM (inactive) | 24.9 µM (inactive) |  | 
COc1cc(O)c2c(=O)cc(C3(OC(C)=O)C=CC(OC4OC(CO)C(O)C(O)C4O)C=C3)oc2c1 (centres undefined) | > 100 µM (inactive) | > 100 µM (inactive) | > 100 µM (inactive) | > 100 µM (inactive) | > 100 µM (inactive) | > 100 µM (inactive) | > 100 µM (inactive) | > 100 µM (inactive) |  | > 100 µM (inactive) | > 100 µM (inactive) | > 100 µM (inactive) | > 100 µM (inactive) | > 100 µM (inactive) | > 100 µM (inactive) | > 100 µM (inactive) | > 100 µM (inactive) | > 100 µM (inactive) | 
NC(Cc1ccccc1)c1nccs1 (centres undefined) | > 100 µM (inactive) | > 100 µM (inactive) | > 100 µM (inactive) | > 100 µM (inactive) | > 100 µM (inactive) | > 100 µM (inactive) | > 100 µM (inactive) | > 100 µM (inactive) | > 100 µM (inactive) | > 100 µM (inactive) | > 100 µM (inactive) |  | > 100 µM (inactive) | > 100 µM (inactive) | > 100 µM (inactive) | > 100 µM (inactive) | > 100 µM (inactive) |  | > 100 µM (inactive)
CCOC(=O)NN(C(=O)OCC)C(=C(C1=CCCCC1)N1CCOCC1)N(NC(=O)OCC)C(=O)OCC | > 100 µM (inactive) |  |  | > 100 µM (inactive) | > 100 µM (inactive) | > 100 µM (inactive) | > 100 µM (inactive) | > 100 µM (inactive) | > 100 µM (inactive) |  | > 100 µM (inactive) | > 100 µM (inactive) | > 100 µM (inactive) | > 100 µM (inactive) |  | > 100 µM (inactive) | > 100 µM (inactive) | > 100 µM (inactive) | 
Brc1ccc2c(c1)-c1nc3nc4c(cc3cc1CC2)CCc1ccc(Br)cc1-4 | > 100 µM (inactive) | 0.47 µM (active) | > 100 µM (inactive) | 5.65 µM (inactive) | > 100 µM (inactive) | > 100 µM (inactive) | > 100 µM (inactive) | > 100 µM (inactive) | > 100 µM (inactive) | > 100 µM (inactive) | > 100 µM (inactive) |  | > 100 µM (inactive) |  | > 100 µM (inactive) | > 100 µM (inactive) |  | > 100 µM (inactive) | 
CCCCC(C(=O)NCCNC(=O)CCC(=O)N(C)O)C(=O)NCCNC(=O)CCC(=O)N(C)O | > 100 µM (inactive) | > 100 µM (inactive) | > 100 µM (inactive) | > 100 µM (inactive) | > 100 µM (inactive) | > 100 µM (inactive) | > 100 µM (inactive) | > 100 µM (inactive) |  | > 100 µM (inactive) | > 100 µM (inactive) | > 100 µM (inactive) | > 100 µM (inactive) | > 100 µM (inactive) | > 100 µM (inactive) | > 100 µM (inactive) | > 100 µM (inactive) | > 100 µM (inactive) | 
COC(=O)Cc1c([C@@H]2Nc3ccccc3[C@H]2CC(=O)OC)[nH]c2ccccc12 |  | 23 µM (inactive) | 20.5 µM (inactive) | 26.1 µM (inactive) | 52.4 µM (inactive) | 26.9 µM (inactive) | 27 µM (inactive) | 10.9 µM (inactive) | 31.1 µM (inactive) | 24.9 µM (inactive) | 44.2 µM (inactive) |  | 16.6 µM (inactive) | 59.4 µM (inactive) | 17.7 µM (inactive) | 34.7 µM (inactive) | 8.02 µM (inactive) |  | 41.3 µM (inactive)
O=[N+]([O-])/C(C(Cl)=C(Cl)Cl)=C(/Nc1cccc2cccnc12)n1nnc2ccccc21 | 6.85 µM (inactive) | 17.2 µM (inactive) | 13.4 µM (inactive) | 15.9 µM (inactive) | 15.9 µM (inactive) | 19.2 µM (inactive) | 15.5 µM (inactive) | 3.57 µM (inactive) | 16.5 µM (inactive) | 30.3 µM (inactive) |  |  | 15.8 µM (inactive) |  | 15.3 µM (inactive) |  |  | 19 µM (inactive) | 11.9 µM (inactive)
COc1ccc(-c2c(C(=O)Nc3ccccc3)c(-c3ccccc3)n(C3OC(CO)C(O)C(O)C3O)c(=S)c2C#N)cc1 (centres undefined) | > 100 µM (inactive) | > 100 µM (inactive) |  | > 100 µM (inactive) |  | > 100 µM (inactive) | > 100 µM (inactive) | > 100 µM (inactive) | > 100 µM (inactive) | > 100 µM (inactive) |  | > 100 µM (inactive) | > 100 µM (inactive) | > 100 µM (inactive) |  | > 100 µM (inactive) | > 100 µM (inactive) |  | > 100 µM (inactive)
NC1=Nc2ccccc2Sc2nc3ccccc3n21 | > 100 µM (inactive) | 7.85 µM (inactive) | 21.1 µM (inactive) |  | 17.1 µM (inactive) | 52.5 µM (inactive) | 25.5 µM (inactive) | 4.54 µM (inactive) | 18.4 µM (inactive) | 26.1 µM (inactive) | > 100 µM (inactive) | 2.4 µM (inactive) | 7.5 µM (inactive) | 39.6 µM (inactive) |  |  | 4.49 µM (inactive) | 21.6 µM (inactive) | 55.7 µM (inactive)
